Data: US11976074B1, “Crystalline salts of Linsitinib” (Sling Therapeutics, Inc., priority 2023, dated 2024)
Entries after “also recorded” stand apart in the source; their conditions may differ.

Key:
Assay type in all cases: physicochemical
[1] = pH-solubility of linsitinib free base and selected salts (pH 1.5 to 6.5, overnight equilibration, HPLC); details: for solubility: overnight equilibration; for Final pH: after overnight equilibration
[2] = Equilibrium solubility in bio-relevant media (FaSSGF pH 1.6, FaSSIF pH 6.5)
[3] = DVS analysis (hygroscopicity) of Esylate 2
Description: Esylate 2 appears to be a stable polymorph of the esylate salt of linsitinib. Esylate 2 was isolated from a wide range of techniques, solvents and temperatures, and a few samples were characterized further (Table 13). NMR analysis confirmed it to be a 1:1 linsitinib esylate salt. […] This was further supported by successful indexing of its PXRD pattern, whose calculated unit cell volume pointed to a 1:1 salt (Section 0).

[4] = 75% relative humidity stress test; details: 24 days, RT
Method: (§1) A scale-up attempt for Esylate 2 was carried out towards the relative humidity stress test and the mechanical stress test.

[5] = Mechanical stress test (neat grinding/milling); details: milled neat at max power for 30 minutes
Method: as §1

[6] = Interconversion slurries of esylate forms; details: 4° C., RT, 60° C.; MEK and 2:1 EtOH:HEP
Method: To find the thermodynamically stable form of the mono-salt, interconversion slurries were set-up at three different temperatures in two different solvent systems between Esylates 1, 2, 3 and Esylate 4+Esylate 5 (Table 11). A sample of Esylate 4+Esylate 5 was included as part of the interconversion slurry in-spite of Esylate 4 being a solvate as Esylate 5 could not be isolated as a separate pure phase until the drying experiment was carried out on Esylate 4 towards the end of the study. Slurries were set-up at 4° C., RT and at 60° C. in MEK and 2:1 EtOH:HEP, resulting in a total of six experiments which were run for a total of 7 days.

[7] = Water activity slurries of Esylate 2 seeded with Esylate 1; details: for PXRD result of water activity slurry: seeded with Esylate 1
Description: Water activity slurries were set-up with Esylate 2 and seeds of Esylate 1 to explore the presence of a potential hydrate and any associated critical water activity (Table 12). Four slurries were set-up in varying ratios of THF and H2O corresponding to 0.45, 0.63, 0.78 and 0.91 aw respectively.

[8] = Physical stability testing of Esylate 4 (elevated temperature vacuum drying); details: vacuum oven, 60° C., 18 hours
Description: Esylate 4 was obtained from salt formation experiments using 1 Eq ESA at RT and ST in IPA and was further characterized using multiple techniques (Table 16).
Esylate 5 was initially only obtained in-tandem with Esylate 4 from slurries in several different solvent systems (FIG. 4). […] Due to the fact that the sample had been generated via drying at elevated temperature, the weight loss observed upon heating is likely due to surface or channel water absorbed during exposure to ambient conditions. […] Esylate 5 was not obtained from any of the interconversion slurries, indicating it is metastable under the conditions investigated (Table 18).

[9] = Heating experiments with selected malate samples
Method: Based on the thermal data, Malate 4 and Malate 5 were heated at […] for 15 minutes. The solids were re-analyzed by PXRD after heating to investigate any form change upon dehydration. […] While there was an insufficient amount of sample to further characterize Malate 7, based on the conditions upon which it was generated, it could be a lower hydrate or an anhydrous form.

[10] = Thermogravimetric analysis (TGA); details: start to 83° C.
Method: The TG analysis was carried out using a TA Instruments […] Discovery Series instrument. The instrument balance was calibrated using class M weights and the temperature calibration was performed using alumel. The nitrogen purge was 10 mL per minute at the balance and 25 mL per minute at the furnace. The sample was placed into a pre-tared platinum pan and heated from approximately 25° C. to 300° C. at a rate of 10° C. per minute.

[11] = Differential scanning calorimetry (DSC); details: endotherms
Method: DSC analysis was carried out using a TA Instruments […] Discovery Series instrument. The instrument temperature calibrations were performed using indium. The DSC cell was kept under a nitrogen purge of 50 mL per minute during the analysis. The sample was placed in a standard, crimped aluminum pan and heated from approximately 25° C. to 300° C. at a rate of 10° C. per minute

## CCS(=O)(=O)O.C[C@]1(O)C[C@@H](c2nc(-c3ccc4ccc(-c5ccccc5)nc4c3)c3c(N)nccn32)C1 [Esylate 2]
[1]; aqueous solution, pH 6, aqueous buffer, thermodynamic from solid, target pH 6.0, read-out: Solubility
  solubility: 0.7 mg/mL
[1]; between pH 3 and pH 4
  Solubility compared to the free base and other salts: highest solubility
[1]; lower pH (<3)
  Solubility compared with the free base or Phosphate 1: significantly higher solubility
[1]; target pH 1.5
  Final pH: 1.45
[1]; target pH 1.5, * = clear solution, not equilibrium value
  solubility: 106.19 mg/mL
[1]; target pH 2.0
  Final pH: 2.06
[1]; target pH 2.0, * = clear solution, not equilibrium value
  solubility: 97.33 mg/mL
[1]; target pH 2.5
  Final pH: 2.54
[1]; target pH 2.5, * = clear solution, not equilibrium value
  solubility: 71.00 mg/mL
[1]; target pH 3.0
  Final pH: 3.04
[1]; target pH 3.0, * = clear solution, not equilibrium value
  solubility: 73.90 mg/mL
[1]; target pH 3.5
  Final pH: 3.53
[1]; target pH 3.5, * = clear solution, not equilibrium value
  solubility: 38.04 mg/mL
[1]; target pH 4.0
  Final pH: 3.99
[1]; target pH 4.0, * = clear solution, not equilibrium value
  solubility: 39.56 mg/mL
[1]; target pH 4.5
  Final pH: 4.54
[1]; target pH 4.5, * = clear solution, not equilibrium value
  solubility: 18.90 mg/mL
[1]; target pH 5.0
  Final pH: 4.96
  solubility: 20.46 mg/mL
[1]; target pH 5.5
  Final pH: 5.48
[1]; target pH 6.0
  Final pH: 4.18
[1]; target pH 6.5
  Final pH: 4.34
  solubility: 0.002 mg/mL
[2]; FaSSGF (pH 1.6)
  Final pH: 3.25
  solubility: 103.10 mg/mL
[2]; FaSSGF (pH 1.6), in words
  Solubility compared with the free base: highest solubility by a significant margin
[2]; FaSSIF (pH 6.5)
  Final pH: 3.72
  solubility: 1.62 mg/mL
[3]
  Hygroscopicity by DVS: slightly hygroscopic
  Net weight change after DVS analysis: no net weight change
  Weight gain and loss during the sorption and desorption cycles: 1%
[3]; 5-95% RH
  DVS sorption total weight gain: 5-95% RH: Total 33.1% weight gain
[3]; 35-75% RH
  DVS sorption weight gain: 35-75% RH: 12.0% weight gain
[3]; 75-35% RH
  DVS desorption weight loss: 75-35% RH: 12.3% weight loss
[3]; 75-95% RH
  DVS sorption weight gain: 75-95% RH: 16.9% weight gain
[3]; 95-5% RH
  DVS desorption total weight loss: 95-5% RH: Total 33.1% weight loss
[3]; 95-75% RH
  DVS desorption weight loss: 95-75% RH: 14.2% weight loss
[3]; above 85% RH
  Water up-take above 85% RH: ~0.8%
[3]; after sorption and desorption
  DVS net weight change: −0.04% weight loss
[4]
  PXRD result after 75% RH stress: no form change; also recorded: Esylate 2
  Weight gain by TGA after 75% RH stress: no weight gain
[5]
  PXRD result after grinding: poorly crystalline Esylate 2 along with amorphous residue
[6]
  Relative stability of the form in interconversion slurries: most stable form
[7]; 93.1% THF in H2O, aw = 0.91, RT
  PXRD result of water activity slurry: Esylate 2
[7]; 94.7% THF in H2O, aw = 0.78, RT
  PXRD result of water activity slurry: Esylate 2
[7]; 96.2% THF in H2O, aw = 0.63, RT
  PXRD result of water activity slurry: Esylate 2
[7]; 97.6% THF in H2O, aw = 0.45, RT
  PXRD result of water activity slurry: Esylate 2
[7]; THF/H2O slurries at RT
  Critical water activity, if present: > 0.91 aw

## CCS(=O)(=O)O.C[C@]1(O)C[C@@H](c2nc(-c3ccc4ccc(-c5ccccc5)nc4c3)c3c(N)nccn32)C1 [Esylate 4]
[6]
  Relative stability of the form in interconversion slurries: metastable
[8]
  PXRD result after vacuum drying: form change into Esylate 5

## C[C@]1(O)C[C@@H](c2nc(-c3ccc4ccc(-c5ccccc5)nc4c3)c3c(N)nccn32)C1.O=C(O)C[C@H](O)C(=O)O [Malate 5]
[9]; 92° C., 15 min
  XRPD result after heating: Malate 7 + pk
[9]; heated for 15 minutes
  Form change upon heating (PXRD): dehydrate to a new form, designated as Malate 7
[10]
  TGA Results (weight loss): 7.4%, start to 83 °C
[11]
  DSC Results, Endo: Endo: 109 °C
